Reference: US6586435B2, “Benzimidazolone derivatives displaying affinity at the serotonin and dopamine receptors” (Boehringer Ingelheim Pharma KG, priority 2000, dated 2003)
Read-outs that look alike come from different tables or passages of the source.

Experiments:
5-HT1A human receptors = biological target: T1, 5-HT1A human receptors (Homo sapiens, UniProt P08908); test: 5-HT1A radioligand receptor binding assay ([3H]-8-OH-DPAT); details: for inhibition at 0.1 µM: compound 10^−7 M, singlicate, [3H]-8-OH-DPAT 0.6-0.7 nM
T1 construct: expressed in transfected cells; host or cells: CHO cells
T1 sequence (P08908 1-422): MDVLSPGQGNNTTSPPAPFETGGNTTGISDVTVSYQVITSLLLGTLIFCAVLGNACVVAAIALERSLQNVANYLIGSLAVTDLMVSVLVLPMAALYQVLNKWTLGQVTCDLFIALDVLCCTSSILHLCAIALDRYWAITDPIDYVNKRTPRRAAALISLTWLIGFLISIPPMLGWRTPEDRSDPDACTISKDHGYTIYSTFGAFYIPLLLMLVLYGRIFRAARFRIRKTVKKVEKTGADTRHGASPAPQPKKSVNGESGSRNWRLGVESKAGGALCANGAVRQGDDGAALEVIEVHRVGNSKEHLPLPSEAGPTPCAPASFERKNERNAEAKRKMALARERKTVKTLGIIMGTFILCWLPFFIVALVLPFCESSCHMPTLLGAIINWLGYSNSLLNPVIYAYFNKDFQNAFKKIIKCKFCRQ
Experimental: 5-HT1A, Radioligand Receptor Binding Assay
Membranes from CHO cells, expressing 5-HT1A human receptors were suspended in incubation buffer.
Binding assays were performed in MultiProbe 204 pipetting system (Packard), according to a predetermined mapping, consistent with the software Screen. The compounds were tested in singlicate at one concentration (10^−7 M) in a total volume of 1000 μl. 980 μl of diluted membranes, 10 μl DMSO or unlabelled ligand, and 10 μl of [^3H]-8-OH-DPAT (0.6-0.7 nM) were incubated for 60 minutes at 27° C. The reaction was stopped by rapid filtration through Tomtec Cell Harvester (48 wells) using Filtermat B (presoaked in 0.1% PEI) filters. Filters were washed with ice-cold 50 mM Tris-HCl (pH 7.4) buffer (9×700 μl), dried, covered with MeltiLex B/HS scintillator sheets (Wallac) and heated at 80° C. to 90° C. for about 10 minutes, transferred into plastic sample bags (Wallac), sealed and put into 1024 Beta Plate scintillation counter (Wallac). Non-specific binding was determined in the presence of 5-HT (10^−5 M).
The specific radioligand binding to the receptor was defined by the difference between total binding and non-specific binding, determined in the presence of an excess of unlabelled ligand. Results were expressed as percentage of control specific binding obtained in the presence of the compounds. The affinity values (IC50) for the compounds were obtained by a nonlinear least squares regression analysis on the basis of a one binding site model.

[1] = biological target: T2, 5-HT1A receptor (CHO/5-HT1A cells) (Homo sapiens, UniProt P08908); test: 5-HT1A functional assay (cAMP); type: cell-based; details: 10 μM compound, % inhibition of the cAMP accumulation induced by 10 μM FSK, read-out: 5-HT1A cAMP % Inhibition (agonist activity)
T2 construct: expressed in transfected cells; host or cells: CHO/5-HT1A cells
T2 sequence (P08908 1-422): T1 sequence (P08908 1-422)
Experimental: 5-HT1A Functional Assay (cAMP)
CHO/5-HT1A cells were random seeded at a density of about 200,000/well in 24 well plates the day prior to the experiment. On the day of the experiment, cells were pretreated for 15 minutes at 37° C. with 500 μM isobutylmethylxantine (IBMX) dissolved in culture medium without serum. Wells were then divided in different groups in duplicate as follows: control, 10 μM FSK, 10 μM FSK+1 μM 5-HT as positive standard and 10 μM FSK+10 μM of the different compound under evaluation. Sample solutions were added and incubated for additional 15 minutes at 37° C. After incubation, medium was aspirated and the reaction stopped by adding 200 μl of lysis buffer. Plates were shaken for 5 minutes, then the lysate was removed and samples were stored at 4° C. until the day of the assay. For the cAMP evaluation, samples were properly diluted and the cAMP content was measured by an enzyme immunoassay system.
Results are expressed as % inhibition of the cAMP accumulation induced by 10 μM FSK.

D4 human receptors = biological target: T3, D4 human receptors (Homo sapiens, UniProt P21917); test: D4 radioligand receptor binding assay ([3H] YM-09151-2); details: compound 10^−7 M, singlicate; membranes from CHO cells; [3H] YM-09151-2 0.15-0.25 nM
T3 construct: expressed in transfected cells; host or cells: CHO cells
T3 sequence (P21917 1-419): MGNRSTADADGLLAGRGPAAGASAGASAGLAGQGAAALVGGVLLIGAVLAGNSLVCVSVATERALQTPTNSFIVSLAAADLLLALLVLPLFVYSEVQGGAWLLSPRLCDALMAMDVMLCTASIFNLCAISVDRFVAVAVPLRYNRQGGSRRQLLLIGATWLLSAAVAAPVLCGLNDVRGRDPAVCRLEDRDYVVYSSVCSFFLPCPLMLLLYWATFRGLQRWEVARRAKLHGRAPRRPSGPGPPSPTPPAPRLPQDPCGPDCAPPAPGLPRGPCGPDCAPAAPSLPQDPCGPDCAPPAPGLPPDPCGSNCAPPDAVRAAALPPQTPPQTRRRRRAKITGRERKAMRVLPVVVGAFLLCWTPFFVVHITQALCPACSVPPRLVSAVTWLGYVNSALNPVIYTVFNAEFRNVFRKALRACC
Experimental: D4 Radioligand Receptor Binding Assay
Membranes from CHO cells, expressing D4 human receptors were suspended in incubation buffer.
Binding assays were performed in MultiProbe 204 pipetting system (Packard), according to a predetermined mapping, consistent with the software Screen. The compounds were tested in singlicate at one concentration (10^−7 M) in a total volume of 1000 μl (980 μl of diluted membranes, 10 μl DMSO or unlabelled ligand, and 10 μl of [^3H] YM-09151-2 (0.15-0.25 nM). After incubation for 120 minutes at 27° C., the reaction was stopped by rapid filtration through Tomtec Cell Harvester (48 wells) using Filtermat B (presoaked in 0.1% PEI) filters. Filters were washed with ice-cold 50 mM Tris-HCl (pH 7.4) buffer (9×700 μl), dried, covered with MeltiLex B/HS (Wallac) scintillator sheets and heated in oven at 80° C.-90° C. for about 10 minutes, transferred into plastic sample bags (Wallac), sealed and put into 1024 Beta Plate scintillation counter (Wallac). Non-specific binding was determined in the presence of clozapine dissolved in DMSO to a final concentration of 10^−5 M.
The specific radioligand binding to the receptor was defined by the difference between total binding and non-specific binding, determined in the presence of an excess of unlabelled ligand. Results were expressed as percentage of control specific binding obtained in the presence of the compounds.

[2] = membranes from CHO cells, [3H]-8-OH-DPAT, one binding site model, read-out: 5-HT1A Receptor Binding IC50

| Structure (SMILES) | IC50 (5-HT1A human receptors; [2]) [nM] | inhibition at 10 µM [1] [%] | IC50 (5-HT1A human receptors) [nM] | inhibition at 0.1 µM (5-HT1A human receptors; membranes from CHO cells) [%] | inhibition at 0.1 µM (D4 human receptors) [%] |
| --- | --- | --- | --- | --- | --- |
| O=c1n(C/C=C/CN2CCN(c3cccc(C(F)(F)F)c3)CC2)c2ccccc2n1CC1CCCCC1 [Compound 128] | 8.4 | 61 |  |  |  |
| O=c1[nH]c2ccccc2n1C/C=C\CN1CC=C(c2ccccc2)CC1 [Compound 27] |  | 44 | 6.4 | 87 | 70 |
| Cn1c(=O)n(C/C=C/CN2CCN(c3ccccn3)CC2)c2ccccc21 [Compound 89] | 10 | 66 |  | 92 | 34 |
| CCCn1c(=O)n(C/C=C/CN2CCN(c3cccc(C(F)(F)F)c3)CC2)c2ccccc21 [Compound 111] | 4.4 | 68 |  | 94 | 32 |
| Cn1c(=O)n(C/C=C\CN2CC=C(c3ccccc3)CC2)c2ccccc21 [Compound 44] |  | 47 | 2.5 | 94 | 69 |
| O=c1n(C/C=C/CN2CCN(c3ccccn3)CC2)c2ccccc2n1CC1CCCCC1 [Compound 123] | 1.2 | 63 |  | 98 | 57 |
| CCCn1c(=O)n(C/C=C\CN2CCN(c3ccccc3)CC2)c2ccccc21 [Compound 52] | 16 | 54 |  | 90 | 47 |
| O=c1n(C/C=C\CN2CCN(c3ccccc3)CC2)c2ccccc2n1CC1CCCCC1 [Compound 69] | 13 | 52 |  | 90 | 41 |
| CCCn1c(=O)n(C/C=C\CN2CCN(c3cccc(Cl)c3)CC2)c2ccccc21 [Compound 56] | 11 | 65 |  | 92 | 65 |
| CCCn1c(=O)n(C/C=C\CN2CC=C(c3ccccc3)CC2)c2ccccc21 [Compound 61] |  | 26 | 5.2 | 90 | 44 |
| O=c1[nH]c2ccccc2n1C/C=C/CN1CCN(c2cccc(C(F)(F)F)c2)CC1 [Compound 9] |  | 80 | 4.8 | 96 | 54 |
| Cn1c(=O)n(C/C=C/CN2CC=C(c3ccccc3)CC2)c2ccccc21 [Compound 95] |  | 22 | 7.3 | 92 | 46 |
| Cn1c(=O)n(C/C=C/CN2CCN(c3cccc(Cl)c3)CC2)c2ccccc21 [Compound 90] | 4.6 | 62 |  | 98 | 79 |
| O=c1n(C/C=C/CN2CCc3c([nH]c4ccccc34)C2)c2ccccc2n1CC1CCCCC1 [Compound 126] | 15 | 44 |  |  |  |
| CCCn1c(=O)n(C/C=C/CN2CC=C(c3ccccc3)CC2)c2ccccc21 [Compound 112] |  | 9 | 13 | 87 | 43 |
| Cn1c(=O)n(C/C=C/CN2CCc3c([nH]c4ccccc34)C2)c2ccccc21 [Compound 92] | 15 | 46 |  | 88 | 54 |
| Cn1c(=O)n(C/C=C/CN2CCN(c3cccc(C(F)(F)F)c3)CC2)c2ccccc21 [Compound 94] | 0.96 | 75 |  |  |  |
| O=c1[nH]c2ccccc2n1C/C=C\CN1CCN(c2cccc(C(F)(F)F)c2)CC1 [Compound 26] |  | 68 | 6.6 | 94 | 49 |
| CCCn1c(=O)n(C/C=C/CN2CCN(c3cccc(Cl)c3)CC2)c2ccccc21 [Compound 107] | 5.3 | 54 |  | 96 | 69 |
| CCCn1c(=O)n(C/C=C\CN2CCN(c3cccc(C(F)(F)F)c3)CC2)c2ccccc21 [Compound 60] | 1.8 | 71 |  | 88 | 30 |
| O=c1n(C/C=C/CN2CC=C(c3ccccc3)CC2)c2ccccc2n1CC1CCCCC1 [Compound 129] |  | 13 | 5.5 |  |  |
| Cn1c(=O)n(C/C=C\CN2CCN(c3cccc(C(F)(F)F)c3)CC2)c2ccccc21 [Compound 43] | 1.2 | 73 |  | 94 | 54 |
| O=c1n(C/C=C/CN2CCN(c3ncccn3)CC2)c2ccccc2n1CC1CCCCC1 [Compound 125] | 3.3 | 49 |  | 90 | 51 |
| Cn1c(=O)n(C/C=C\CN2CCN(c3cccc(Cl)c3)CC2)c2ccccc21 [Compound 39] | 9.8 | 63 |  | 91 | 72 |
| O=c1n(C/C=C\CN2CC=C(c3ccccc3)CC2)c2ccccc2n1CC1CCCCC1 [Compound 78] |  | 27 | 18 | 86 | 40 |
| Cn1c(=O)n(C/C=C\CN2CCN(c3ccccc3)CC2)c2ccccc21 [Compound 35] | 15 | 66 |  | 88 | 59 |
| O=c1n(C/C=C/CN2CCN(c3ccccc3)CC2)c2ccccc2n1CC1CCCCC1 [Compound 120] | 6 | 17 |  | 98 | 49 |
| O=c1n(C/C=C/CN2CCN(c3cccc(Cl)c3)CC2)c2ccccc2n1CC1CCCCC1 [Compound 124] | 11 | 47 |  | 99 | 49 |
